Tests used:
Assay in all cases: relative viability (nuclei count vs DMSO), 5 days (fraction); higher = more cells survive
[1] = compound: COc1cc2nc(N3CCCN(C)CC3)nc(NC3CCN(Cc4ccccc4)CC3)c2cc1OC + O=C(CCCCCCC(=O)Nc1ccccc1)NO [Vorinostat] (partner 1 µM)
How it was run: (§1)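 Lung cancer cell lines, seeded in 1536-well plates, were treated the following day by pin tool with a single drug or with five library-drug doses (not always all listed) in √10 steps on top of a fixed anchor-drug dose. Cells were fixed and nuclei stained in one step after 5 days, and nuclei were counted. Relative viability is the nuclei count for treated wells divided by that for vehicle wells, reported as medians of duplicate plates.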

[2] = compound: COc1cc2nc(N3CCCN(C)CC3)nc(NC3CCN(Cc4ccccc4)CC3)c2cc1OC + COc1cccc2cc(-c3nc([C@H]4CC[C@H](C(=O)O)CC4)n4ncnc(N)c34)[nH]c12 [OSI-027] (partner 0.5 µM)
How it was run: as §1

AZD6482 + Linsitinib = compound: Cc1cc([C@@H](C)Nc2ccccc2C(=O)O)c2nc(N3CCOCC3)cc(=O)n2c1 [AZD6482] + C[C@]1(O)C[C@@H](c2nc(-c3ccc4ccc(-c5ccccc5)nc4c3)c3c(N)nccn32)C1 [Linsitinib] (partner 1 µM)
How it was run: as §1

AZD6482 + Navitoclax = compound: Cc1cc([C@@H](C)Nc2ccccc2C(=O)O)c2nc(N3CCOCC3)cc(=O)n2c1 [AZD6482] + CC1(C)CCC(c2ccc(Cl)cc2)=C(CN2CCN(c3ccc(C(=O)NS(=O)(=O)c4ccc(N[C@H](CCN5CCOCC5)CSc5ccccc5)c(S(=O)(=O)C(F)(F)F)c4)cc3)CC2)C1 [Navitoclax] (partner 0.5 µM)
How it was run: as §1

Cell Line | relative viability ([1]; first compound 0.2 µM) | relative viability ([1]; first compound 0.6325 µM) | relative viability ([1]; first compound 2 µM) | relative viability ([1]; first compound 6.325 µM) | relative viability ([2]; first compound 0.2 µM) | relative viability ([2]; first compound 0.6325 µM) | relative viability ([2]; first compound 2 µM) | relative viability ([2]; first compound 6.325 µM) | relative viability (AZD6482 + Linsitinib; first compound 0.08 µM) | relative viability (AZD6482 + Linsitinib; first compound 0.253 µM) | relative viability (AZD6482 + Linsitinib; first compound 0.8 µM) | relative viability (AZD6482 + Linsitinib; first compound 2.53 µM) | relative viability (AZD6482 + Linsitinib; first compound 8 µM) | relative viability (AZD6482 + Navitoclax; first compound 0.08 µM) | relative viability (AZD6482 + Navitoclax; first compound 0.253 µM) | relative viability (AZD6482 + Navitoclax; first compound 0.8 µM) | relative viability (AZD6482 + Navitoclax; first compound 2.53 µM) | relative viability (AZD6482 + Navitoclax; first compound 8 µM)
HCC-827 | 0.899 | 0.786 | 0.784 | 0.826 | 0.761 | 0.793 | 0.687 | 0.781 | 0.939 | 0.944 | 0.926 | 0.861 | 0.775 | 0.938 | 1.01 | 1.07 | 0.899 | 0.898
HOP-62 | 0.658 | 0.366 | 0.638 | 0.435 | 0.812 | 0.845 | 0.826 | 0.819 | 1.1 | 0.836 | 1.12 | 0.67 | 0.841 | 1.19 | 1.17 | 1.28 | 0.791 | 1.12
IA-LM | 0.983 | 0.876 | 0.908 | 0.975 | – | – | – | – | 0.861 | 0.732 | 0.786 | – | 0.969 | 0.859 | 0.979 | 0.977 | 0.618 | 0.744
LC-2-ad | 0.679 | 0.716 | 0.763 | 0.693 | 0.849 | 0.841 | 0.83 | 0.761 | 0.61 | 0.48 | 0.605 | 0.318 | 0.511 | 0.407 | 0.312 | 0.394 | 0.234 | 0.259
LCLC-97TM1 | 0.801 | 0.649 | 1 | 0.69 | 0.569 | 0.621 | 0.674 | 0.537 | 0.189 | 0.158 | 0.168 | 0.134 | 0.169 | 0.59 | 0.257 | 0.38 | 0.211 | 0.211
LCLC-103H | 0.776 | 0.754 | 0.844 | 0.656 | 0.454 | 0.564 | 0.537 | 0.449 | 0.869 | 0.73 | 0.72 | 0.605 | 0.572 | – | – | – | – | –
LK-2 | 0.302 | 0.194 | 0.364 | 0.209 | 0.197 | 0.221 | 0.196 | 0.214 | 0.587 | 0.521 | 0.791 | 0.513 | 0.421 | 0.779 | 0.716 | 0.932 | 0.681 | 0.782
LOU-NH91 | 0.942 | 1.06 | 0.845 | 0.827 | 0.75 | 0.761 | 0.625 | 0.74 | 0.782 | 0.913 | 0.842 | 0.598 | 0.665 | 0.579 | 0.651 | 0.659 | 0.441 | 0.518
LU99A | 0.473 | 0.546 | 0.517 | 0.44 | 0.319 | 0.292 | 0.26 | 0.278 | 0.445 | 0.44 | 0.434 | 0.331 | 0.361 | 0.753 | 0.757 | 0.81 | 0.515 | 0.529
